According to US20120065228A1, “COMPOSITIONS AND METHODS FOR TREATING, CONTROLLING, REDUCING, OR AMELIORATING OCULAR INFLAMMATORY WITH LOWER RISK OF INCREASED INTRAOCULAR PRESSURE” (priority 2007, published 2012):
Values joined by “and” are separate entries in the source; they are usually repeats but may differ in a detail not shown here. Equal values may be shown once.

What was measured:
[1] = test system: protein concentration in the aqueous humor; experiment: Protein measurement in aqueous humor, rabbit paracentesis model; format: in vivo; conditions: for Protein in aqueous humor, Mean / Protein in aqueous humor: second paracentesis; for Protein in aqueous humor: individual eyes, listed as BOL
Protocol: (§1) Each rabbit was placed in a restraint device and tagged with the alphanumeric code. The formulations were instilled (50 μl) into the conjunctival sac of both eyes 180, 120, 90 and 30 min before the first paracentesis; then 15, 30, 90 min after the first paracentesis. To perform the first paracentesis the animals were anaesthetized by intravenous injection of 5 mg/kg Zoletil® (Virbac; 2.5 mg/kg tiletamine HCl and 2.5 mg/kg zolazepam HCl) and one drop of local anesthetic (Novesina®, Novartis) was administered to the eye. Anterior chamber paracentesis was performed with a 26 G needle attached to a tuberculin syringe; the needle was introduced into the anterior chamber through the cornea, taking care not to damage the tissues. Two hours after the ® first paracentesis, the animals were sacrificed with 0.4 ml Tanax® (Intervet International B.V.) and the second paracentesis was performed. About 100 μl of aqueous humor were removed at the second paracentesis. Aqueous humor was immediately split in four aliquots and stored at −80° C. until analysis. Then both eyes were enucleated and the iris-ciliary body was carefully excised, placed in polypropylene tubes, and stored at −80° C. until analysis.
For protein concentration determination in the aqueous humor we used the Protein Quantification Kit (Fluka; Cat. No. 77371; Lot. No. 1303129). Five microliters of aqueous humor were diluted to 100 μl with water. Twenty microliters of samples and of standards were load into a 96-well plate and recorded in a plate layout. Samples were treated following the assay procedure described in the kit. A microplate reader (GDV, Italy; model DV 990 B/V6) set at 670 nm was used for making the calibration and analyzing the samples.
(§2) Pupillary diameter, PGE2, protein, PMN, and MPO were expressed as mean±SEM. Statistical analysis was performed using one way ANOVA followed by a Newman-Keuls post hoc test. Clinical score was expressed as % of eyes and the statistical analysis was performed using Kruskal-Wallis followed by a Dunn post hoc test. P<0.05 was considered statistically significant in both cases. Prism 4 software (GraphPad Software, Inc.) was used for the analysis and graphs.

leukocytes (PMN) = experiment: Leukocytes (PMN) measurement in aqueous humor, rabbit paracentesis model; format: in vivo; conditions: second paracentesis; for PMN in aqueous humor: individual eyes, listed as BOL
Protocol: as §1
For the determination of the number of leukocytes we used a haemocytometer (Improved Neubauer Chamber; Bright-line. Hausser Scientific) and a Polyvar 2 microscope (Reichert-Jung).
as §2

rabbit eye [2] = experiment: Pupillary diameter measurement, rabbit paracentesis model; format: in vivo; conditions: individual eyes, listed as BOL; for Pupillary diameter T2: −5 min: 5 min before the first paracentesis; for Pupillary diameter T3: +115 min: 5 min before the second paracentesis; for Pupillary diameter Δ(T3 − T1): +115 min minus −180 min; for Pupillary diameter T1: −180 min: basal
Protocol: as §1
The pupillary diameter of both eyes was measured with a Castroviejo caliper 180 min and 5 min before the first paracentesis and 5 min before the second paracentesis.
as §2

rabbit eye [3] = experiment: Clinical evaluation by slit lamp (clinical score), rabbit paracentesis model; format: in vivo; parameters: key to Clinical Score −180 min / Clinical Score −5 min / Clinical Score +115 min: 0: normal; 1: discrete dilatation of iris and conjunctival vessels; 2: moderate dilatation of iris and conjunctival vessels; 3: intense iridal hyperemia with flare in the anterior chamber; 4: intense iridal hyperemia with flare in the anterior chamber and presence of fibrinous exudates; conditions: for Clinical Score −5 min: 5 min before the first paracentesis; for Clinical Score −5 min / Clinical Score +115 min / Clinical Score −180 min: individual eyes; for Clinical Score +115 min: 5 min before the second paracentesis; for Clinical Score −180 min: basal
rabbit eyes = experiment: Ophthalmic observations (slit lamp, McDonald Shadduck) in the rabbit IOP study; format: in vivo, New Zealand White rabbits; parameters: key to Cornea Score: 1: Some loss of transparency. Only the epithelium and/or the anterior half of the stoma are involved. The underlying structures are clearly visible although some cloudiness may be readily apparent; key to Conjunctival congestion Score: A flushed, reddish color predominantly confined to the palpebral conjunctiva with some perilimbal injection but primarily confined to the lower and upper parts of the eye from the 4:00 to 7:00 and 11:00 to 1:00 positions; conditions: for Conjunctival congestion Score: individual rabbit; for Ophthalmic Observation (Slit-Lamp): individual rabbits
Protocol: On Days 1-31, animals received daily topical doses of the appropriate test article into the right eye. Animals were dosed four times per day, with doses administered 2 hours apart. Doses were administered using a calibrated 50-μL pipette. The eyelids were held close for 10 seconds immediately following dosing. The time of each dose administration was recorded.
Ophthalmic examinations (slit lamp) were performed prior to the first dosing on Days 5, 12, 22, 26, and 33. Ocular findings were scored according to the McDonald Shadduck system and recorded using a standardized data collection sheet.

[4] = 0.1% topical formulation, +115 min, 8 eyes
[5] = 0.5% topical formulation, +115 min, 8 eyes
[6] = 1 mg/g BOL-303242-X 4 x daily, treated right eye, Day 22
[7] = 5 mg/g BOL-303242-X 4 x daily, treated right eye, Day 5
[8] = 5 mg/g BOL-303242-X 4 x daily, treated right eye, Day 22
[9] = 5 mg/g BOL-303242-X 4 x daily, treated right eye, Day 22, 26
[10] = 5 mg/g BOL-303242-X 4 x daily, treated right eye, Day 26
[11] = 10 mg/g BOL-303242-X 4 x daily, treated right eye, Day 5, 12
[12] = 10 mg/g BOL-303242-X 4 x daily, treated right eye, Day 12
[13] = 10 mg/g BOL-303242-X 4 x daily, treated right eye, Day 26

Compound: Cc1ccc2c(NCC(O)(CC(C)(C)c3cc(F)cc4c3OCC4)C(F)(F)F)cccc2n1 (centres unmarked) [BOL-303242-X]
- Protein in aqueous humor, Mean ([1]; 0.1% topical formulation): 33.667 mg/mL
- Protein in aqueous humor ([1]; 0.1% topical formulation): 34.87 mg/mL and 34.41 mg/mL and 31.14 mg/mL and 22.82 mg/mL and 29.46 mg/mL and 31.69 mg/mL and 35.70 mg/mL and 49.25 mg/mL
- Protein in aqueous humor, statistical significance vs CTR ([1]; 0.5% topical formulation, p<0.05): statistical significance
- Protein in aqueous humor, Mean ([1]; 0.5% topical formulation): 28.844 mg/mL
- Protein in aqueous humor ([1]; 0.5% topical formulation): 33.98 mg/mL and 33.65 mg/mL and 19.99 mg/mL and 27.11 mg/mL and 19.72 mg/mL and 36.35 mg/mL and 27.71 mg/mL and 32.24 mg/mL
- Protein in aqueous humor, statistical significance vs CTR ([1]; 1% topical formulation, p<0.001): statistical significance
- Protein in aqueous humor, Mean ([1]; 1% topical formulation): 21.435 mg/mL
- Protein in aqueous humor ([1]; 1% topical formulation): 20.99 mg/mL and 21.48 mg/mL and 15.11 mg/mL and 20.28 mg/mL and 20.94 mg/mL and 21.89 mg/mL and 20.03 mg/mL and 30.76 mg/mL
- PMN in aqueous humor, Mean (leukocytes (PMN); 0.1% topical formulation): 28.333 number/μl
- PMN in aqueous humor (leukocytes (PMN); 0.1% topical formulation): 20 number/μl (4×) and 40 number/μl and 50 number/μl
- PMN in aqueous humor, Mean (leukocytes (PMN); 0.5% topical formulation): 21.250 number/μl
- PMN in aqueous humor (leukocytes (PMN); 0.5% topical formulation): 40 number/μl (2×) and 20 number/μl (3×) and 10 number/μl (3×)
- PMN in aqueous humor, Mean (leukocytes (PMN); 1% topical formulation): 28.750 number/μl
- PMN in aqueous humor (leukocytes (PMN); 1% topical formulation): 30 number/μl (3×) and 20 number/μl (3×) and 40 number/μl (2×)
- Pupillary diameter T2: −5 min (rabbit eye [2]; 0.1% topical formulation): 6.5 mm (3×) and 7.0 mm (4×) and 7.5 mm
- Pupillary diameter T3: +115 min (rabbit eye [2]; 0.1% topical formulation): 5.0 mm (2×) and 6.0 mm (3×) and 6.5 mm and 5.5 mm (2×)
- Pupillary diameter Δ(T3 − T1) (rabbit eye [2]; 0.1% topical formulation): −1.5 mm (4×) and −0.5 mm (2×) and −1.0 mm (2×)
- Pupillary diameter T1: −180 min (rabbit eye [2]; 0.1% topical formulation): 6.5 mm (4×) and 7.0 mm (3×) and 7.5 mm
- Pupillary diameter T2: −5 min (rabbit eye [2]; 0.5% topical formulation): 8.0 mm (3×) and 7.0 mm (4×) and 7.5 mm
- Pupillary diameter T3: +115 min (rabbit eye [2]; 0.5% topical formulation): 6.5 mm (4×) and 6.0 mm (2×) and 7.0 mm (2×)
- Pupillary diameter Δ(T3 − T1) (rabbit eye [2]; 0.5% topical formulation): −1.5 mm (2×) and −0.5 mm (2×) and −1.0 mm (4×)
- Pupillary diameter T1: −180 min (rabbit eye [2]; 0.5% topical formulation): 8.0 mm (3×) and 7.0 mm (3×) and 7.5 mm (2×)
- Pupillary diameter T2: −5 min (rabbit eye [2]; 1% topical formulation): 6.0 mm (2×) and 6.5 mm (4×) and 7.0 mm (2×)
- Pupillary diameter T3: +115 min (rabbit eye [2]; 1% topical formulation): 5.5 mm (2×) and 5.0 mm (4×) and 6.0 mm (2×)
- Pupillary diameter Δ(T3 − T1) (rabbit eye [2]; 1% topical formulation): −0.5 mm (3×) and −1.5 mm (2×) and −1.0 mm (3×)
- Pupillary diameter T1: −180 min (rabbit eye [2]; 1% topical formulation): 6.0 mm (3×) and 6.5 mm (5×)
- Clinical Score −5 min (rabbit eye [3]; 0.1% topical formulation): 0
- Clinical Score +115 min (rabbit eye [3]; 0.1% topical formulation, listed as BOL): 2 (6×) and 3 (2×)
- Clinical score as percentage of eyes, Score (%) 2 (rabbit eye [3]; [4]): 75%
- Clinical score as percentage of eyes, Score (%) 3 (rabbit eye [3]; [4]): 25%
- Clinical Score −180 min (rabbit eye [3]; 0.1% topical formulation): 0
- Clinical score as percentage of eyes, Score (%) 0 (rabbit eye [3]; 0.1% topical formulation, −5 min, 8 eyes): 100%
- Clinical score as percentage of eyes, Score (%) 0 (rabbit eye [3]; 0.1% topical formulation, −180 min (basal), 8 eyes): 100%
- Clinical Score −5 min (rabbit eye [3]; 0.5% topical formulation): 0
- Clinical Score +115 min (rabbit eye [3]; 0.5% topical formulation, listed as BOL): 2 (5×) and 1 (3×)
- Clinical score as percentage of eyes, Score (%) 1 (rabbit eye [3]; [5]): 37.5%
- Clinical score as percentage of eyes, Score (%) 2 (rabbit eye [3]; [5]): 62.5%
- Clinical Score −180 min (rabbit eye [3]; 0.5% topical formulation): 0
- Clinical score as percentage of eyes, Score (%) 0 (rabbit eye [3]; 0.5% topical formulation, −5 min, 8 eyes): 100%
- Clinical score as percentage of eyes, Score (%) 0 (rabbit eye [3]; 0.5% topical formulation, −180 min (basal), 8 eyes): 100%
- Clinical Score −5 min (rabbit eye [3]; 1% topical formulation): 0
- Clinical Score +115 min (rabbit eye [3]; 1% topical formulation): 2
- Clinical score as percentage of eyes, Score (%) 2 (rabbit eye [3]; 1% topical formulation, +115 min, 8 eyes): 100%
- Clinical Score −180 min (rabbit eye [3]; 1% topical formulation): 0
- Clinical score as percentage of eyes, Score (%) 0 (rabbit eye [3]; 1% topical formulation, −5 min, 8 eyes): 100%
- Clinical score as percentage of eyes, Score (%) 0 (rabbit eye [3]; 1% topical formulation, −180 min (basal), 8 eyes): 100%
- Conjunctival congestion Score (rabbit eyes; [6]): 1
- Ophthalmic Observation (Slit-Lamp) (rabbit eyes; [6]): Conjunctival congestion
- Slit-lamp ophthalmic finding (rabbit eyes; 1 mg/g suspension, dosed right eye (Group D, No. 3043)): subconjunctival hemorrhage
- Conjunctival congestion Score (rabbit eyes; [7]): 1
- Conjunctival congestion Score (rabbit eyes; [8]): 1
- Conjunctival congestion Score (rabbit eyes; [9]): 1
- Conjunctival congestion Score (rabbit eyes; [10]): 1
- Ophthalmic Observation (Slit-Lamp) (rabbit eyes; [7]): Conjunctival congestion
- Ophthalmic Observation (Slit-Lamp) (rabbit eyes; [8]): Conjunctival congestion
- Ophthalmic Observation (Slit-Lamp) (rabbit eyes; [9]): Conjunctival congestion
- Ophthalmic Observation (Slit-Lamp) (rabbit eyes; [10]): Conjunctival congestion
- Conjunctival congestion Score (rabbit eyes; [11]): 1
- Conjunctival congestion Score (rabbit eyes; [12]): 1
- Conjunctival congestion Score (rabbit eyes; [13]): 1
- Ophthalmic Observation (Slit-Lamp) (rabbit eyes; 10 mg/g BOL-303242-X 4 x daily, treated right eye, Day 5): Surface area of cornea involvement
- Ophthalmic Observation (Slit-Lamp) (rabbit eyes; [11]): Conjunctival Congestion
- Ophthalmic Observation (Slit-Lamp) (rabbit eyes; [12]): Conjunctival Congestion
- Ophthalmic Observation (Slit-Lamp) (rabbit eyes; [13]): Conjunctival Congestion
- Surface area of cornea involvement Score (rabbit eyes; 10 mg/g BOL-303242-X 4 x daily, treated right eye, rabbit 3083, Day 5): 1 (1-25% area of stromal cloudiness.)
- Cornea Score (rabbit eyes; 10 mg/g BOL-303242-X 4 x daily, treated right eye, rabbit 3083, Day 5, pinpoint corneal scar): 1^(2)
- Slit-lamp ophthalmic finding (rabbit eyes; 10 mg/g suspension, dosed right eye (Group B, No. 3083)): pinpoint corneal scar
- Ocular finding associated with unilateral topical instillation (rabbit eyes; four times daily up to 31 days, BOL-303242-X 0.05, 0.25 or 0.5 mg/dose, dexamethasone 0.05 mg/dose): sporadic mild conjunctival congestion
